Assay results published in the supplement of paper PMC11451515.

Legend:
Experiment in all cases: AUC of viability dose-response curve (% viability x log10 dose units); higher = less sensitive
Conditions in all cases: 48 h
[1] = system: P12-Ichikawa
How it was run: (§1)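 Leukemia cells adapted to each medium were seeded in 1536-well plates (500 or 1000 cells/well). They were dosed with library compounds in DMSO at 11 threefold doses, 47 μM to 0.79 nM, for 48 h at 37°C. CellTiter-Glo One luminescence was normalised per plate to DMSO and cell-free wells. Area under the curve was integrated by trapezoidal rule over log10 doses on a four-parameter log-logistic fit; curves exceeding full viability were scaled and curves failing quality control removed.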

[2] = system: SEM cells
How it was run: as §1

[3] = system: NOMO1
How it was run: as §1

[4] = RPMI 5 mM glucose + 10% dialyzed FBS

Question: Which results are given for S=C1N\C=N/C2=C1[NH]C=N2?
Answer: AUC of viability dose-response curve ([1]; HPLM + 10% dialyzed FBS): 404; AUC of viability dose-response curve ([1]; RPMI 5 mM glucose + 10% FBS): 377; AUC of viability dose-response curve [1, 4]: 343; AUC of viability dose-response curve ([2]; HPLM + 10% dialyzed FBS): 445; AUC of viability dose-response curve ([2]; RPMI 5 mM glucose + 10% FBS): 409; AUC of viability dose-response curve [2, 4]: 360; AUC of viability dose-response curve ([3]; HPLM + 10% dialyzed FBS): 425; AUC of viability dose-response curve ([3]; RPMI 5 mM glucose + 10% FBS): 446; AUC of viability dose-response curve [3, 4]: 360
